Test [1] concerns GM3 expression on the cell surface, B16 mouse melanoma cells. Description: cell based phenotypic assay, cell surface GM3 by antibody mediated immunofluorescence, B16 (GM3 B16 IC50). The settings on record: 50% inhibition of GM3 expression on the cell surface. Summed up: (§1)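 Two melanoma lines, mouse B16 and human C32, were treated and surface GM3 quantified by antibody immunofluorescence for IC50. A parallel viability readout gives the concentration killing 50% of cells, with values over 10 indicating no cell death.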

For a further test, the system named is C32 human melanoma cells. Description: cell viability in the C32 cell-based assay (Viability, C32 IC50). The conditions noted are these: concentration causing 50% cell death, values greater than 10 represent a lack of cell death. The essentials: (§2)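 Cell death was scored within the cell-based GM3 experiment for each line. The viability value is the concentration producing 50% death, and numbers exceeding 10 signify no cytotoxicity.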

The subject of test [2] is GM3 expression on the cell surface, C32 human melanoma cells. Description: cell based phenotypic assay, cell surface GM3 by antibody mediated immunofluorescence, C32 (GM3 C32 IC50). The conditions noted are these: 50% inhibition of GM3 expression on the cell surface. The essentials: as §1
In test [3] the target is T1, glucosylceramide synthase (Homo sapiens, UniProt Q16739).
T1 construct: Microsomes were isolated from A375 human melanoma cells; endogenous in cells; host or cells: A375 human melanoma cells (microsomal fraction, 100,000 g pellet)
T1 sequence (Q16739 1-394): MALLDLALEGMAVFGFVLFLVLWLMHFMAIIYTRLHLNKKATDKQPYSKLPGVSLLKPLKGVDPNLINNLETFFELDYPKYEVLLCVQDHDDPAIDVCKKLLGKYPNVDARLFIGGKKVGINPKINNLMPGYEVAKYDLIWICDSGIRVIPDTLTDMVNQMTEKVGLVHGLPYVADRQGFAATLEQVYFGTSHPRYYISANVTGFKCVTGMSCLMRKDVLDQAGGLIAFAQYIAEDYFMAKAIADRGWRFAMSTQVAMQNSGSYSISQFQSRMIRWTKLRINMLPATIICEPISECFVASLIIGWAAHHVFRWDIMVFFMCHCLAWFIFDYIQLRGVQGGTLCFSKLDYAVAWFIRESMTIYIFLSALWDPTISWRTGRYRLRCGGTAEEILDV
Description: microsomal assay measuring conversion of ceramide to glucosylceramide by HPLC (GCS IC50). It is filed as biochemical. The conditions noted are these: concentration causing 50% inhibition of glucosylceramide synthase activity. The essentials:
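IC50 is the compound concentration halving glucosylceramide synthase activity. Activity was measured in microsomes, with HPLC quantifying glucosylceramide formed from ceramide.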

For the next test, the system named is B16 mouse melanoma cells. As to the kind of experiment: cell viability in the B16 cell-based assay (Viability, B16 IC50). The essentials: as §2
The mark [4] stands for this setting: Mus musculus, B16 mouse melanoma cells, read-out: GM3 B16 IC50.
Where [5] appears, read: Homo sapiens, C32, C32 cells, read-out: Viability, C32 IC50.
Where [6] appears, read: Homo sapiens, C32 human melanoma cells, read-out: GM3 C32 IC50.
[7] abbreviates: Mus musculus, B16, B16 cells, concentration causing 50% cell death, values greater than 10 represent a lack of cell death, read-out: Viability, B16 IC50.
Where [8] appears, read: Mus musculus, read-out: GM3 B16 IC50, B16 mouse melanoma cells.
Setting [9] is: Homo sapiens, C32, read-out: Viability, C32 IC50, C32 cells.
Where [10] appears, read: Homo sapiens, read-out: GM3 C32 IC50, C32 human melanoma cells.
[11] abbreviates: Mus musculus, B16, read-out: Viability, B16 IC50.

Where two headings read alike, the source gives them in different places.

What is called IC50 is the concentration at which inhibition is half-maximal. For the molecule `CC(C)(NC(=O)NC1(C)CCN2CCC1CC2)c1ccc(Oc2ccc(C(=O)N3CCC(F)(F)CC3)cc2)cc1` (stereo not drawn) [Example 302, 1-(2-(4-(4-(4,4-Difluoropiperidine-1-carbonyl)phenoxy)phenyl)propan-2-yl)-3-(4-methyl-1-azabicyclo[3.2.2]nonan-4-yl)urea], the concentration for half-maximal inhibition (IC50) in test [1] (setting [4]) is 0.0317 µM; in the test on C32 human melanoma cells (setting [5]) it was 1 µM; in test [2] (setting [6]), 0.00147 µM; in test [3], 0.00422 µM; with B16 mouse melanoma cells (setting [7]), ≥ 10 µM.
Consider `CCC1(NC(=O)NC(C)(C)C#Cc2ccc(COC)cc2)CN2CCC1CC2` (stereo not drawn) [Example 327, 1-(3-Ethylquinuclidin-3-yl)-3-(4-(4-(methoxymethyl)phenyl)-2-methylbut-3-yn-2-yl)urea], for which the IC50 is 0.343 µM in test [1] (setting [4]); ≥ 10 µM in the test on C32 human melanoma cells (setting [5]); 0.0147 µM in test [2] (setting [6]); 0.0962 µM in test [3]; ≥ 10 µM in the test with B16 mouse melanoma cells (setting [7]).
Take `CC1(NC(=O)N2CCN(c3ccccc3)CC2)CN2CCC1CC2` (stereo not drawn) [Example 9, N-(3-Methylquinuclidin-3-yl)-4-phenylpiperazine-1-carboxamide]: the IC50 is > 10 µM in test [1] (setting [4]); ≥ 10 µM in the test with C32 human melanoma cells (setting [5]); 7.59 µM in test [2] (setting [6]); 12.2 µM in test [3]; ≥ 10 µM with B16 mouse melanoma cells (setting [7]).
As for `COCCOc1ccc(-c2ccc(C(C)(C)NC(=O)OC3CN4CCC3CC4)nc2)cc1` (stereo not drawn) [Example 346, Quinuclidin-3-yl 2-(5-(4-(2-methoxyethoxy)phenyl)pyridin-2-yl)propan-2-ylcarbamate], the IC50 in test [1] (setting [8]) is 0.266 µM; in the test with C32 human melanoma cells (setting [9]) it was 3.16 µM; in test [2] (setting [10]) it was 0.0111 µM; in test [3], 0.0507 µM; in the test with B16 mouse melanoma cells (setting [11]), ≥ 10 µM.
For `COCCCOc1ccc(-c2cccc(C(C)(C)NC(=O)OC3CN4CCC3CC4)c2)nn1` (stereo not drawn) [Example 312, Quinuclidin-3-yl (2-(3-(6-(3-methoxypropoxy)pyridazin-3-yl)phenyl)propan-2-yl)carbamate], in that order: 1.34 µM, 1 µM, 0.103 µM, 1.66 µM and ≥ 10 µM.
With `COCCOc1ccc(-c2nc(C(C)(C)NC(=O)OC3CN4CCC3CC4)cs2)cc1` (stereo not drawn) [Example 343, Quinuclidin-3-yl (2-(2-(4-(2-methoxyethoxy)phenyl)thiazol-4-yl)propan-2-yl)carbamate], the IC50 is 0.106 µM in test [1] (setting [8]); 1 µM in the test with C32 human melanoma cells (setting [9]); 0.0198 µM in test [2] (setting [10]); 0.36 µM in test [3]; ≥ 10 µM in the test with B16 mouse melanoma cells (setting [11]).
Regarding `CN(C(=O)C1CCN(c2nccc(-c3ccc(F)cc3)n2)CC1)C1CN2CCC1CC2` (stereo not drawn) [Example 109, 1-(4-(4-Fluorophenyl)pyrimidin-2-yl)-N-methyl-N-(quinuclidin-3-yl)piperidine-4-carboxamide], the IC50 in test [1] (setting [4]) was 2.23 µM; in the test on C32 human melanoma cells (setting [5]), 3.16 µM; in test [2] (setting [6]) it was 0.00899 µM; in test [3], 0.0401 µM; with B16 mouse melanoma cells (setting [7]), 9.53 µM.
Turning to `COCCOc1ccc(-c2ccc(C3(NC(=O)OC4CN5CCC4CC5)CC3)cc2)cc1` (stereo not drawn) [Example 166, Quinuclidin-3-yl (1-(4′-(2-methoxyethoxy)-[1,1′-biphenyl]-4-yl)cyclopropyl)carbamate], the half-maximal inhibitory concentration (IC50) in test [1] (setting [8]) is 0.0219 µM; with C32 human melanoma cells (setting [9]), 0.215 µM; in test [2] (setting [10]), 0.00181 µM; in test [3], 0.00569 µM; with B16 mouse melanoma cells (setting [11]), 0.316 µM.
With `CC(C)(NC(=O)OC1CN2CCC1CC2)c1ccc(-c2ccc(OCCn3ccnn3)cc2)cc1` (stereo not drawn) [Example 182, Quinuclidin-3-yl (2-(4′-(2-(1H-1,2,3-triazol-1-yl)ethoxy)-[1,1′-biphenyl]-4-yl)propan-2-yl)carbamate], the IC50 amounted to 0.388 µM in test [1] (setting [8]); 1 µM in the test on C32 human melanoma cells (setting [9]); 0.0131 µM in test [2] (setting [10]); 0.0431 µM in test [3]; 3.16 µM in the test on B16 mouse melanoma cells (setting [11]).
Take “4-(4′-Fluoro-[1,1′-biphenyl]-3-yl)-N-(4-methyl-1-azabicyclo[3.2.2]nonan-4-yl)piperazine-1-carboxamide [Example 22]”: the IC50 in test [1] (B16 mouse melanoma cells, read-out: GM3 B16 IC50) came to 0.629 µM; in the test on C32 human melanoma cells (C32 cells, read-out: Viability, C32 IC50) it was 1 µM; in test [2] (C32 human melanoma cells, read-out: GM3 C32 IC50), 0.0411 µM; in test [3], 0.613 µM; with B16 mouse melanoma cells (B16 cells, concentration causing 50% cell death, values greater than 10 represent a lack of cell death, read-out: Viability, B16 IC50), 7.06 µM.
`COCc1ccc(-c2ccnc(N3CCN(C(=O)NC4(C)CCN5CCC4CC5)CC3C(F)(F)F)n2)cc1` (stereo not drawn) [Example 149, 4-(4-(4-(Methoxymethyl)phenyl)pyrimidin-2-yl)-N-(4-methyl-1-azabicyclo[3.2.2]nonan-4-yl)-3-(trifluoromethyl)piperazine-1-carboxamide]: the IC50 was determined as 0.279 µM in test [1] (setting [4]); 1 µM with C32 human melanoma cells (setting [5]); 0.0015 µM in test [2] (setting [6]); 0.0109 µM in test [3]; 4.31 µM in the test on B16 mouse melanoma cells (setting [7]).
On to `COCCOc1ccc(-c2ccnc(N3CCC(F)(C(=O)N[C@]4(C)CN5CCC4CC5)CC3)n2)cc1` [Example 86, (S)-4-Fluoro-1-(4-(4-(2-methoxyethoxy)phenyl)pyrimidin-2-yl)-N-(3-methylquinuclidin-3-yl)piperidine-4-carboxamide], for which the IC50 was 0.048 µM in test [1] (setting [4]); 1 µM in the test with C32 human melanoma cells (setting [5]); 0.000241 µM in test [2] (setting [6]); 0.00346 µM in test [3]; ≥ 10 µM in the test on B16 mouse melanoma cells (setting [7]).
Turning to `CC(C)(NC(=O)OC1CN2CCC1CC2)c1ccc(-c2ccc(CN3CCOCC3)cc2)cc1` (stereo not drawn) [Example 229, Quinuclidin-3-yl (2-(4′-(morpholinomethyl)-[1,1′-biphenyl]-4-yl)propan-2-yl)carbamate], the IC50 in test [1] (setting [8]) was 0.524 µM; in the test with C32 human melanoma cells (setting [9]), ≥ 10 µM; in test [2] (setting [10]), 0.0532 µM; in test [3] it was 0.158 µM; in the test on B16 mouse melanoma cells (setting [11]), ≥ 10 µM.
Take `CNC(=O)c1cccc(Oc2cccc(C(C)(C)NC(=O)NC3(C)CCN4CCC3CC4)c2)c1` (stereo not drawn) [Example 297, N-Methyl-3-(3-(2-(3-(4-methyl-1-aza-bicyclo[3.2.2]nonan-4-yl)ureido)propan-2-yl)phenoxy)benzamide]: the IC50 in test [1] (setting [4]) is 1.37 µM; in the test with C32 human melanoma cells (setting [5]), 1 µM; in test [2] (setting [6]) it was 0.0132 µM; in test [3], 0.0102 µM; in the test with B16 mouse melanoma cells (setting [7]), ≥ 10 µM.
As for `COCCOc1cccc(-c2ccc(C(C)(C)NC(=O)N3CCN4CCC3CC4)cc2)c1` [Example 169, N-(2-(3′-(2-Methoxyethoxy)-[1,1′-biphenyl]-4-yl)propan-2-yl)-1,4-diazabicyclo[3.2.2]nonane-4-carboxamide], the IC50 in test [1] (setting [4]) was 0.283 µM; with C32 human melanoma cells (setting [5]), 1 µM; in test [2] (setting [6]), 0.018 µM; in test [3] it was 0.257 µM; in the test on B16 mouse melanoma cells (setting [7]), ≥ 10 µM.
In the case of `O=C(OC1CCN2CCC1CC2)C1CCN(c2nccc(-c3ccc(F)cc3)n2)CC1` (stereo not drawn) [Example 110, 1-Azabicyclo[3.2.2]nonan-4-yl 1-(4-(4-fluorophenyl)pyrimidin-2-yl)piperidine-4-carboxylate], the IC50 in test [1] (setting [4]) is 0.528 µM; in the test with C32 human melanoma cells (setting [5]), 1 µM; in test [2] (setting [6]), 0.00239 µM; in test [3], 0.00122 µM; in the test on B16 mouse melanoma cells (setting [7]) it was 3.81 µM.
With `O=C(OC1CN2CCC1CC2)N1CCN(c2ccccc2)CC1` (stereo not drawn) [Example 12, Quinuclidin-3-yl 4-phenylpiperazine-1-carboxylate], the half-maximal inhibitory concentration (IC50) in test [1] (setting [8]) was > 10 µM; in the test with C32 human melanoma cells (read-out: Viability, C32 IC50, C32 cells), ≥ 10 µM; in test [2] (setting [10]), > 10 µM; in test [3], 12.2 µM; with B16 mouse melanoma cells (read-out: Viability, B16 IC50, B16 cells, concentration causing 50% cell death, values greater than 10 represent a lack of cell death), ≥ 10 µM.
Turning to `CNC(=O)c1cccc(Oc2cccc(C(C)(C)NC(=O)NC3(C)CN4CCC3CC4)c2)c1` (stereo not drawn) [Example 296, N-Methyl-3-(3-(2-(3-(3-methylquinuclidin-3-yl)ureido)propan-2-yl)phenoxy)benzamide], the IC50 in test [1] (setting [4]) is 5.47 µM; with C32 human melanoma cells (setting [5]) it was ≥ 10 µM; in test [2] (setting [6]) it was 0.155 µM; in test [3], 0.2 µM; with B16 mouse melanoma cells (setting [7]) it was ≥ 10 µM.

Source of the values: patent US12060349B2, “Glucosylceramide synthase inhibitors” (Genzyme Corporation, priority 2012, dated 2024).
